For 13 compounds, Ki results are on record in ChEMBL document CHEMBL1131505, “(+)-cis-N-ethyleneamino-N-normetazocine derivatives. Novel and selective sigma ligands with antagonist properties” (J Med Chem, 1998).

Some results are limits rather than exact numbers.

For experiment [1], the target named is T1, D(2) dopamine receptor (Rattus norvegicus, UniProt P61169). Briefly: Inhibition of [3H]spiroperidol binding to Dopamine receptor D2 of rat striatal membranes. The class given is cell membranes, Membrane.
T1 sequence (P61169 whole entry): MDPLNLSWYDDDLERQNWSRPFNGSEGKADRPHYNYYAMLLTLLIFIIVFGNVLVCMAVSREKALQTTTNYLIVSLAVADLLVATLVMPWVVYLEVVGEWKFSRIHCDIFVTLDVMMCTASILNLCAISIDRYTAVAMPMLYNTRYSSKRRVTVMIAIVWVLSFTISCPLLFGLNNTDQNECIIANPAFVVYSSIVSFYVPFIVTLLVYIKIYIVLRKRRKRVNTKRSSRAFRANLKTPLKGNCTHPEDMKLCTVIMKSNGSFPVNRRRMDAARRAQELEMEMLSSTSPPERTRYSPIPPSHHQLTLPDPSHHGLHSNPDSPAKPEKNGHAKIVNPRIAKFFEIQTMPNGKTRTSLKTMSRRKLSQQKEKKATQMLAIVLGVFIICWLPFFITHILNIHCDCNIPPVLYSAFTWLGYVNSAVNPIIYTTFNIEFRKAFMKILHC
Experiment [2] deals with Serotonin 2 (5-HT2) receptor. The experiment is described as follows: Inhibition of [3H]ketanserin binding to 5-hydroxytryptamine 2 receptor of guinea pig frontal cortex membranes. It counts as tissue-based, Cavia porcellus.
Experiment [3] has as its target T2, Muscarinic acetylcholine receptor M2 (Rattus norvegicus, UniProt P10980).
T2 sequence (P10980 whole entry): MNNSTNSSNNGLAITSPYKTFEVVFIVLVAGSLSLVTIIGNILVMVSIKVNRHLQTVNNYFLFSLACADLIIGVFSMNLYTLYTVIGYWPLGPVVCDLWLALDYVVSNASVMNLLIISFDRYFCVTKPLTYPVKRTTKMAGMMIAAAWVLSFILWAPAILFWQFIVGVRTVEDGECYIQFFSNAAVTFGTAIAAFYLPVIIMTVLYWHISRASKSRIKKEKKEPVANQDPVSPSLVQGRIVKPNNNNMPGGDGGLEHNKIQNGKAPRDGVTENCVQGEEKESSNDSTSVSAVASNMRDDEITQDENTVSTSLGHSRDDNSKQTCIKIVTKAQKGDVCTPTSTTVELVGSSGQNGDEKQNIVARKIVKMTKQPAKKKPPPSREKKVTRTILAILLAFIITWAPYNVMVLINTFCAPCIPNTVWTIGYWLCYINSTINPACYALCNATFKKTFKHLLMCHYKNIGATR
The experiment is described as follows: Inhibition of [3H]N-methylscopolamine binding to Muscarinic acetylcholine receptor M2 of rat heart membranes. It counts as cell membranes, Membrane.

Experiment [4] can be described thus: Compound was tested for its binding affinity towards PCP receptor in rat membranes in the presence of [3H]-(+)-SKF- 10,047. The class given is cell membranes.
In experiment [5] the target is T3, Opioid receptor (Rattus norvegicus, UniProt P33533+P34975+P33535). Briefly: Compound was tested for its binding affinity towards Opioid receptors in rat membranes in the presence of [3H]naloxone. The class given is cell membranes.
The target in experiment [6] is T3, Opioid receptor. The experiment is described as follows: Inhibition of [3H]naloxone binding to Opioid receptors of rat brain membranes. The class given is cell membranes, Membrane.
The next experiment has as its target Sigma 2 receptor. The experiment is described as follows: Inhibition of [3H]DTG binding to sigma-2 sites of guinea pig brain membranes.
Experiment [7] deals with T1, D(2) dopamine receptor. Briefly: Binding affinity towards Dopamine receptor D2 in the rat striatal membranes using [3H]spiroperidol. It counts as cell membranes, Striatum, Membrane.

As usually defined, the Ki is the equilibrium dissociation constant of an inhibitor or competing ligand from its target. As to `C=CCN1CC[C@]2(C)c3cc(O)ccc3CC1[C@@H]2C` (single isomer, unassigned; (+)), the inhibition constant (Ki) is more than 10 µM at D(2) dopamine receptor [1]; more than 10 µM in experiment [2]; more than 10 µM in experiment [3]; 0.448 µM in experiment [4]; 1.9 µM at Opioid receptor [5].
On to `CCN(CC)CCN1CC[C@@]2(C)c3cc(O)ccc3C[C@H]1[C@H]2C`, for which the Ki on D(2) dopamine receptor [1] is more than 10 µM; in experiment [2], more than 10 µM; at Opioid receptor [6] it was 12.29 µM; in experiment [3] it was 1.99 µM; in experiment [4], 7.65 µM; on Sigma 2 receptor it was 0.378 µM.
Take `CCN(CCN1CC[C@@]2(C)c3cc(O)ccc3C[C@H]1[C@H]2C)c1ccccc1`: the Ki at Opioid receptor [6] came out at 0.211 µM; on Sigma 2 receptor, 0.151 µM.
As to `C[C@@H]1[C@@H]2Cc3ccc(O)cc3[C@]1(C)CCN2CCNC1CCCCC1`, the Ki on D(2) dopamine receptor [1] is more than 10 µM; in experiment [2], more than 10 µM; at Opioid receptor [6] it was 1.466 µM; in experiment [3], more than 10 µM; in experiment [4], more than 10 µM; at Sigma 2 receptor it was 0.328 µM.
Take `C[C@@H]1[C@@H]2Cc3ccc(O)cc3[C@]1(C)CCN2CCN1CCCCC1`: the Ki is more than 10 µM in experiment [2]; 12 µM at Opioid receptor [6]; 7.8 µM in experiment [3]; more than 10 µM in experiment [4]; more than 10 µM at D(2) dopamine receptor [7]; 0.114 µM at Sigma 2 receptor.
As to `CC(C)=CCN1CC[C@]2(C)c3cc(O)ccc3C[C@H]1[C@H]2C` (single isomer, unassigned) [(+)-PENTAZOCINE], the figures for the inhibition constant (Ki) (in experiment [4]; at Opioid receptor [5]) were 4.32 µM and 2.37 µM, respectively.
As for `C[C@@H]1[C@@H]2Cc3ccc(O)cc3[C@]1(C)CCN2CCN1CCCCCC1`, the Ki at D(2) dopamine receptor [1] is more than 10 µM; in experiment [2], more than 10 µM; at Opioid receptor [6], 9.128 µM; in experiment [3], 1.84 µM; in experiment [4], 0.0502 µM; on Sigma 2 receptor, 0.151 µM.
Consider `C[C@@H]1[C@@H]2Cc3ccc(O)cc3[C@]1(C)CCN2CCN1CCCC1`, for which the Ki on D(2) dopamine receptor [1] was more than 10 µM; in experiment [2], more than 10 µM; at Opioid receptor [6] it was 3.8 µM; in experiment [3], 1.95 µM; in experiment [4] it was more than 10 µM; on Sigma 2 receptor, 0.26 µM.
In the case of `C[C@@H]1[C@@H]2Cc3ccc(O)cc3[C@]1(C)CCN2CCN(C)C`, the Ki on D(2) dopamine receptor [1] was more than 10 µM; in experiment [2] it was more than 10 µM; at Opioid receptor [6], 2.888 µM; in experiment [3], more than 10 µM; in experiment [4] it was 3.38 µM; on Sigma 2 receptor, 0.347 µM.
Turning to `C[C@@H]1[C@@H]2Cc3ccc(O)cc3[C@]1(C)CCN2CCNCc1ccccc1`, the inhibitory constant (Ki) at Sigma 2 receptor stood at 0.187 µM; on Opioid receptor [5] it was 0.366 µM.
For the compound `C[C@@H]1[C@@H]2Cc3ccc(O)cc3[C@]1(C)CCN2CCN1CCOCC1`, the inhibitory constant (Ki) is more than 10 µM on D(2) dopamine receptor [1]; more than 10 µM in experiment [2]; 8.168 µM on Opioid receptor [6]; 0.419 µM in experiment [3]; more than 1 µM in experiment [4]; 0.3 µM at Sigma 2 receptor.
Take `C[C@@H]1[C@@H]2Cc3ccc(O)cc3[C@]1(C)CCN2CCN(C)c1ccccc1`: the inhibition constant (Ki) on Opioid receptor [6] was 0.0288 µM; at Sigma 2 receptor it was 0.124 µM.
The like results for `C[C@@H]1[C@@H]2Cc3ccc(O)cc3[C@]1(C)CCN2CCNc1ccccc1` were, in that order, 0.0798 µM and 0.111 µM.
